Assays:
[1] = tested on: ischemic neurologic deficit; conditions: cited from earlier work
[2] = tested on: acute focal cerebral ischemia (MCA occlusion); set-up: species or system cat; conditions: in vivo; for lived up to 7 days / mortality, 24-28 hours / mortality, 48-72 hours / mortality, less than 24 hours: ip
[3] = tested on: neurologic deficits secondary to cerebral ischemia; conditions: man; cited from earlier work
analgesic response = conditions: mice; cited from earlier work

Compound | survival and neurologic function in several models of stroke ([1]; gerbils (Holaday and D'Amato)) | neurologic function and infarct size after temporary carotid occlusion ([1]; gerbils (Levy et al.)) | neurologic deficits produced by unilateral carotid ligation ([1]; gerbils, intraperitoneal (Hosobuchi et al.)) | effect in prolonging survival [2] | lived up to 7 days [2] | mortality, 24-28 hours [2] | mortality, 48-72 hours [2] | mortality, less than 24 hours [2] | effect on neurologic deficits secondary to cerebral ischemia [3] | analgesic potency (analgesic response)
C=CCN1CC[C@]23c4c5ccc(O)c4O[C@H]2C(=O)CC[C@@]3(O)[C@H]1C5 [Naloxone, 17-allyl-4-5α-epoxy-3,14-dihydroxymorphinan-6-one] | no beneficial effect | did not produce improved neurologic function or alter infarct size | can be reversed | prolonged survival | 31% | 15% | 0% | 54% | can reverse neurologic deficits | –
O=C1CC[C@@]2(O)[C@H]3Cc4ccc(O)c5c4[C@@]2(CCN3CC2CC2)[C@H]1O5 [Naltrexone] | – | – | – | prolonged survival | 40% | 10% | 10% | 40% | – | –
CN1CC[C@]23c4c5ccc(O)c4O[C@H]2[C@@H](O)C=C[C@H]3[C@H]1C5 [morphine] | – | – | – | – | – | – | – | – | exacerbates them | –
Dynorphin | – | – | – | – | – | – | – | – | – | little or no analgesic potency
